Target: recombinant human integrin αvβ6 (Homo sapiens (Human), UniProt P06756+P18564)
Experiment: Solid Phase Integrin αvβ6 Binding Assay (Examples B1, B2)
Details: TGFβ1 LAP ligand, values given in four ranges, read-out: αvβ6 Inhibition IC50 (nM)-range
Protocol: (§1) Microplates were coated with recombinant human integrin αvβ6 (2 μg/mL) in PBS (100 μL/well 25° C., overnight). The coating solution was removed, washed with wash buffer (0.05% Tween 20; 0.5 mM MnCl2; in 1×TBS). The plate was blocked with 200 μL/well of Block Buffer (1% BSA; 5% sucrose; 0.5 mM MnCl2; in 1×TBS) at 37° C. for 2 h. Dilutions of testing compounds and recombinant TGFβ1 LAP (0.67 μg/mL) in binding buffer (0.05% BSA; 2.5% sucrose; 0.5 mM MnCl2; in 1×TBS) were added. The plate was incubated for 2 hours at 25° C., washed, and incubated for 1 hour with Biotin-Anti-hLAP. Bound antibody was detected by peroxidase-conjugated streptavidin. The IC50 values for testing compounds were calculated by four-parameter logistic regression.
The compounds tested were compound samples prepared according to procedures described in the Synthetic Examples section, with the stereochemical purity as indicated in the Examples.
as §1, with “A third series of exemplary compounds was selected for testing in the solid phase integrin αvβ6 binding assay. The compounds tested were compound samples prepared according to procedures described in the Synthetic Examples section, with the stereochemical purity as indicated in the Examples. As in Example B1, microplates were coated” for “Microplates were coated”, “calculated by a four-parameter logistic” for “calculated by four-parameter logistic”

recombinant human integrin αvβ6, sequence (P06756 31-992): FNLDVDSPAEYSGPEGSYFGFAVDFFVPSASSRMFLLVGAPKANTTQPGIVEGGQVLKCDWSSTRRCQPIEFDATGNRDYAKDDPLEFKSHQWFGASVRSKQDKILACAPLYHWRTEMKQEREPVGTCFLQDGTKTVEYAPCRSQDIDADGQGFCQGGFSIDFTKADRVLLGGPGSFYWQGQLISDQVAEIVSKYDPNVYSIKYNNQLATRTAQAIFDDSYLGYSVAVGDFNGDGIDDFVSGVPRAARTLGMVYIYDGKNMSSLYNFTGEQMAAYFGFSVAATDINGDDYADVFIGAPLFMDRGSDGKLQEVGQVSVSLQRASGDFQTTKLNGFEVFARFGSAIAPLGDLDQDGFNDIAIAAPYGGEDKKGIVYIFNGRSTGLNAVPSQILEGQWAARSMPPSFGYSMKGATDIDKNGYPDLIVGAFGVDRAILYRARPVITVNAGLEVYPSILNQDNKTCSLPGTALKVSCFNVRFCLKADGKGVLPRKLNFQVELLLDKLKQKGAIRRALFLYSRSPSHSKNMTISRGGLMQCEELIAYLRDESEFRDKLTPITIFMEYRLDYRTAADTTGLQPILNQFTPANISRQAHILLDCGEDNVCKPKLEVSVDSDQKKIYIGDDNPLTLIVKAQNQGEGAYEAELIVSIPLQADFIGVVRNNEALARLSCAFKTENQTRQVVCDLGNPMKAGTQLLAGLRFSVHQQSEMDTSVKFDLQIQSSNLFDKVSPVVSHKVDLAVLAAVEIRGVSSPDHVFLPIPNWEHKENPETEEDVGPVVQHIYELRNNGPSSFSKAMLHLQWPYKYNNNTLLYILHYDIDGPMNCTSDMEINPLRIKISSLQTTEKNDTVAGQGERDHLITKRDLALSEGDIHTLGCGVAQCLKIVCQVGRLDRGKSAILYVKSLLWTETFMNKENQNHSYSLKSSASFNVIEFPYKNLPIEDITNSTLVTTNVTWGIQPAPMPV
recombinant human integrin αvβ6, sequence (P18564 22-707): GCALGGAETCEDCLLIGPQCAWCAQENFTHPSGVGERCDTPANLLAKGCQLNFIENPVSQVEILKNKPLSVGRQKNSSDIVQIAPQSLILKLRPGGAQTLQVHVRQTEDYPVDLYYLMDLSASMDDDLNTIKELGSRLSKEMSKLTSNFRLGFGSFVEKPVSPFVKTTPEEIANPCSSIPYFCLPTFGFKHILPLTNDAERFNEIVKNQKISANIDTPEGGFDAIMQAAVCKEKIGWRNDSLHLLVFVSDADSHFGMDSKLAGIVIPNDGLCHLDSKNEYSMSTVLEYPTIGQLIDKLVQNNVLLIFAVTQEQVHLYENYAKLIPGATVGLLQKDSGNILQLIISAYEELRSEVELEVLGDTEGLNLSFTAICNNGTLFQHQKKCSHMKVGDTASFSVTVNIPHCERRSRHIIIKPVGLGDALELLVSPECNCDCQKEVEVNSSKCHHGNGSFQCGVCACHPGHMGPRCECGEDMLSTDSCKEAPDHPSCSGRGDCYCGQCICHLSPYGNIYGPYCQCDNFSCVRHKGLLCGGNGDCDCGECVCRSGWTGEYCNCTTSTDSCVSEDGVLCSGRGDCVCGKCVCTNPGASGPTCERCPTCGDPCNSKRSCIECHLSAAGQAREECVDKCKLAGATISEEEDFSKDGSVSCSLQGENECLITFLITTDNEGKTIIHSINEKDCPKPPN

SMILES	IC50
O=C(O)[C@H](CCN(CCCF)CCCCc1ccc2c(n1)NCCC2)Nc1ncnc2ccccc12 [Compound 30, (S)-4-((3-fluoropropyl) (4-(5,6,7,8-tetrahydro-1,8-naphthyridin-2-yl)butyl)amino)-2-(quinazolin-4-ylamino) butanoic acid]	< 50 nM
COC[C@@H](F)CN(CCCCc1ccc2c(n1)NCCC2)CC[C@H](Nc1ncnc2ccccc12)C(=O)O [Compound 31, (S)-4-(((S)-2-fluoro-3-methoxypropyl) (4-(5,6,7,8-tetrahydro-1,8-naphthyridin-2-yl)butyl)amino)-2-(quinazolin-4-ylamino) butanoic acid]	< 50 nM
COC[C@@H](F)CN(CCCCc1ccc2c(n1)NCCC2)CC[C@H](Nc1nc(C)nc2cc(F)ccc12)C(=O)O [Compound 32, (S)-2-((7-fluoro-2-methylquinazolin-4-yl)amino)-4-(((S)-2-fluoro-3-methoxypropyl) (4-(5,6,7,8-tetrahydro-1,8-naphthyridin-2-yl)butyl)amino) butanoic acid]	< 50 nM
Cc1nc(N[C@@H](CCN(CCCCc2ccc3c(n2)NCCC3)CC2CC(F)(F)C2)C(=O)O)c2ccc(F)cc2n1 [Compound 33, (S)-4-(((3,3-difluorocyclobutyl)methyl) (4-(5,6,7,8-tetrahydro-1,8-naphthyridin-2-yl)butyl)amino)-2-((7-fluoro-2-methylquinazolin-4-yl)amino) butanoic acid]	< 50 nM
COCCN(CCCCc1ccc2c(n1)NCCC2)CC[C@H](Nc1nccc2ccccc12)C(=O)O [Compound 34, (S)-2-(isoquinolin-1-ylamino)-4-((2-methoxyethyl) (4-(5,6,7,8-tetrahydro-1,8-naphthyridin-2-yl)butyl)amino) butanoic acid]	> 1000 nM
O=C(O)[C@H](CCN(CCCCc1ccc2c(n1)NCCC2)CCOC(F)F)Nc1ncnc2ccccc12 [Compound 35, (S)-4-((2-(difluoromethoxy)ethyl) (4-(5,6,7,8-tetrahydro-1,8-naphthyridin-2-yl)butyl)amino)-2-(quinazolin-4-ylamino) butanoic acid]	< 50 nM
COCCN(CCCCc1ccc2c(n1)NCCC2)CC[C@H](Nc1ccnc2ccccc12)C(=O)O [Compound 36, (S)-4-((2-methoxyethyl) (4-(5,6,7,8-tetrahydro-1,8-naphthyridin-2-yl)butyl)amino)-2-(quinolin-4-ylamino) butanoic acid]	> 1000 nM
COCCN(CCCCc1ccc2c(n1)NCCC2)CC[C@H](Nc1ncnc2c(Cl)cccc12)C(=O)O [Compound 38, (S)-2-((8-chloroquinazolin-4-yl)amino)-4-((2-methoxyethyl) (4-(5,6,7,8-tetrahydro-1,8-naphthyridin-2-yl)butyl)amino) butanoic acid]	< 50 nM
O=C(O)[C@H](CCN(CCCCc1ccc2c(n1)NCCC2)CCOCC(F)(F)F)Nc1ncnc2ccccc12 [Compound 39, (S)-2-(quinazolin-4-ylamino)-4-((4-(5,6,7,8-tetrahydro-1,8-naphthyridin-2-yl)butyl) (2-(2,2,2-trifluoroethoxy)ethyl)amino) butanoic acid]	< 50 nM
Cc1nc(N[C@@H](CCN(CCCCc2ccc3c(n2)NCCC3)CCOc2ccc(F)cc2)C(=O)O)c2ccc(F)cc2n1 [Compound 40, (S)-2-((7-fluoro-2-methylquinazolin-4-yl)amino)-4-((2-(4-fluorophenoxy)ethyl) (4-(5,6,7,8-tetrahydro-1,8-naphthyridin-2-yl)butyl)amino) butanoic acid]	< 50 nM
COc1ccc2c(N[C@@H](CCN(CCCF)CCCCc3ccc4c(n3)NCCC4)C(=O)O)ncnc2c1 [Compound 41, (S)-4-((3-fluoropropyl) (4-(5,6,7,8-tetrahydro-1,8-naphthyridin-2-yl)butyl)amino)-2-((7-methoxyquinazolin-4-yl)amino) butanoic acid]	< 50 nM
Cc1nc(N[C@@H](CCN(CCCCc2ccc3c(n2)NCCC3)CCOC2CC2(F)F)C(=O)O)c2ccc(F)cc2n1 (stereo partly drawn) [Compound 42, (2S)-4-((2-(2,2-difluorocyclopropoxy)ethyl) (4-(5,6,7,8-tetrahydro-1,8-naphthyridin-2-yl)butyl)amino)-2-((7-fluoro-2-methylquinazolin-4-yl)amino) butanoic acid]	< 50 nM
COc1cccc2c(N[C@@H](CCN(CCCF)CCCCc3ccc4c(n3)NCCC4)C(=O)O)ncnc12 [Compound 43, (S)-4-((3-fluoropropyl) (4-(5,6,7,8-tetrahydro-1,8-naphthyridin-2-yl)butyl)amino)-2-((8-methoxyquinazolin-4-yl)amino) butanoic acid]	< 50 nM
COCCN(CCCCc1ccc2c(n1)NCCC2)CC[C@H](Nc1cc(-n2cccn2)ncn1)C(=O)O [Compound 44, (S)-2-((6-(1H-pyrazol-1-yl)pyrimidin-4-yl)amino)-4-((2-methoxyethyl) (4-(5,6,7,8-tetrahydro-1,8-naphthyridin-2-yl)butyl)amino) butanoic acid]	< 50 nM
Cc1cc(C)n(CCN(CCCCc2ccc3c(n2)NCCC3)CC[C@H](Nc2ncnc3ccccc23)C(=O)O)n1 [Compound 45, (S)-4-((2-(3,5-dimethyl-1H-pyrazol-1-yl)ethyl) (4-(5,6,7,8-tetrahydro-1,8-naphthyridin-2-yl)butyl)amino)-2-(quinazolin-4-ylamino) butanoic acid]	< 50 nM
COC[C@@H](F)CN(CCCCc1ccc2c(n1)NCCC2)CC[C@H](Nc1nc(C)nc2ccccc12)C(=O)O [Compound 46, (S)-4-(((S)-2-fluoro-3-methoxypropyl) (4-(5,6,7,8-tetrahydro-1,8-naphthyridin-2-yl)butyl)amino)-2-((2-methylquinazolin-4-yl)amino) butanoic acid]	< 50 nM
O=C(O)[C@H](CCN(CCCCc1ccc2c(n1)NCCC2)CCOc1cc(F)cc(F)c1)Nc1ncnc2ccccc12 [Compound 47, (S)-4-((2-(3,5-difluorophenoxy)ethyl) (4-(5,6,7,8-tetrahydro-1,8-naphthyridin-2-yl)butyl)amino)-2-(quinazolin-4-ylamino) butanoic acid]	< 50 nM
O=C(O)[C@H](CCN(CCCCc1ccc2c(n1)NCCC2)CCOc1ccccn1)Nc1ncnc2c(Cl)cccc12 [Compound 48, (S)-2-((8-chloroquinazolin-4-yl)amino)-4-((2-(pyridin-2-yloxy)ethyl) (4-(5,6,7,8-tetrahydro-1,8-naphthyridin-2-yl)butyl)amino) butanoic acid]	< 50 nM
O=C(O)[C@H](CCN(CCCCc1ccc2c(n1)NCCC2)CCOc1ccccn1)Nc1ncnc2ccccc12 [Compound 49, (S)-4-((2-(pyridin-2-yloxy)ethyl) (4-(5,6,7,8-tetrahydro-1,8-naphthyridin-2-yl)butyl)amino)-2-(quinazolin-4-ylamino) butanoic acid]	< 50 nM
O=C(O)[C@H](CCN(CCCCc1ccc2c(n1)NCCC2)CCOCC(F)F)Nc1ncnc2ccccc12 [Compound 50, (S)-4-((2-(2,2-difluoroethoxy)ethyl) (4-(5,6,7,8-tetrahydro-1,8-naphthyridin-2-yl)butyl)amino)-2-(quinazolin-4-ylamino) butanoic acid]	< 50 nM
O=C(O)[C@H](CCN(CCCCc1ccc2c(n1)NCCC2)CCOCC(F)(F)F)Nc1ncnc2cccnc12 [Compound 51, (S)-2-(pyrido[3,2-d]pyrimidin-4-ylamino)-4-((4-(5,6,7,8-tetrahydro-1,8-naphthyridin-2-yl)butyl) (2-(2,2,2-trifluoroethoxy)ethyl)amino) butanoic acid]	< 50 nM
Cc1ncccc1OCCN(CCCCc1ccc2c(n1)NCCC2)CC[C@H](Nc1ncnc2ccccc12)C(=O)O [Compound 52, (S)-4-((2-((2-methylpyridin-3-yl)oxy)ethyl) (4-(5,6,7,8-tetrahydro-1,8-naphthyridin-2-yl)butyl)amino)-2-(quinazolin-4-ylamino) butanoic acid]	< 50 nM
Cc1nc(N[C@@H](CCN(CCCCc2ccc3c(n2)NCCC3)CCOc2cccnc2C)C(=O)O)c2ccc(F)cc2n1 [Compound 53, (S)-2-((7-fluoro-2-methylquinazolin-4-yl)amino)-4-((2-((2-methylpyridin-3-yl)oxy)ethyl) (4-(5,6,7,8-tetrahydro-1,8-naphthyridin-2-yl)butyl)amino) butanoic acid]	< 50 nM
Cc1ncccc1OCCN(CCCCc1ccc2c(n1)NCCC2)CC[C@H](Nc1ncnc2cccnc12)C(=O)O [Compound 54, (S)-4-((2-((2-methylpyridin-3-yl)oxy)ethyl) (4-(5,6,7,8-tetrahydro-1,8-naphthyridin-2-yl)butyl)amino)-2-(pyrido[3,2-d]pyrimidin-4-ylamino) butanoic acid]	< 50 nM
